System: 475296-252-R-J1-PDC spheroid viability
Assay: Anticancer human tumor 475296-252-R-J1-PDC patient-derived rectal carcinoma cell line growth inhibition [PI3K]
Conditions: spheroids with HUVEC and MSC; for IC50: curve of first compound; for viability, T/C: stronger effect = lower value; active = viability on the fitted dose curve at most 10% of control; inactive = the rest
Source text: Combinatorial screen of targeted agents with the PI3K inhibitors inavolisib, alpelisib, duvelisib, and copanlisib in multi-cell type tumor spheroids
A high-throughput screen of multi-cell type tumor spheroids was designed to identify active combinations of targeted small molecules and PI3K pathway inhibitors. Complex spheroids include a stromal component modeled by human endothelial cells (HUVEC) and fibroblasts modeled by human mesenchymal stem cells (MSCs). The concentration ranges selected for each drug and investigational agent were based upon clinically achievable concentrations if the clinical Cmax of the agent was known.
Compounds. The drugs and investigational agents: inavolisib (NSC800729), alpelisib (NSC765974), duvelisib (NSC772469), copanlisib (NSC816437), ipatasertib (NSC767898), afuresertib (NSC778305), talazoparib (NSC767125), sapanisertib (NSC764658), selumetinib (NSC741078), tovorafenib (DAY101, NSC766906), vemurafenib (NSC761431), ravoxertinib (NSC781343), sotorasib (NSC818433), MRTX1133 (NSC 836407), abemaciclib (NSC 768073), palbociclib (NSC758247), venetoclax (NSC 766270), SY5609 (NSC837396), enzalutamide (NSC755605), and darolutamide (NSC825331), were obtained from the National Cancer Institute (NCI) Developmental Therapeutics Program Chemical Repository. The FDA-approved anticancer drug set is available from the NCI Developmental Therapeutics Program. […] The stock solutions were prepared in dimethyl sulfoxide (DMSO, Sigma-Aldrich, St. Louis, MO, cat. D2650) at 800-fold the tested concentration and stored at -70 degrees C prior to their use. All drugs and investigational agents were tested over a range starting from a high concentration at or near the clinical Cmax and decreasing in half-log increments. If the clinical Cmax for an agent had not been determined, the highest concentration tested was 10 microM.
Cell Culture. All cells were maintained in an incubator at 37 degrees C and 5% CO2 with 95% humidity. The PDC lines were cultured according to standard operating procedures established by the NCI PDMR (https://pdmr.cancer.gov/sops/default.htm). All PDCs were thawed and cultured in Matrigel-coated flasks prepared with a working solution of 1X Ham's F-12 nutrient mix, without supplementation (Invitrogen, Waltham, MA, cat. 11765054), 100 U/mL penicillin-streptomycin (Invitrogen, cat. 15140122), and 2.5% Matrigel (Corning Inc., Corning, NY, cat. 354248) for the first three passages. The 354836-022-R-J1-PDC, 475296-252-R-J1-PDC, and 997726-040-R-J2-PDC lines were cultured in 6A media, which includes advanced DMEM/F-12 (Thermo Fisher Scientific, cat. 12634028), 10 mM HEPES (Thermo Fisher Scientific, cat. 15630080), 1X GlutaMAX supplement (Thermo Fisher Scientific, cat. 35050061), 0.1 mg/mL primocin (InvivoGen, San Diego, CA, cat. ant-pm-2), 10% defined fetal bovine serum, heat inactivated (HyClone Laboratories Inc., Logan, UT, cat. SH30070.03HI), 50% L-WRN conditioned media (ATCC, cat. CRL-3276), 1.25 mM N-Acetyl-L-cysteine (Sigma-Aldrich, cat. A9165), 10 mM nicotinamide (Sigma-Aldrich, cat. N0636), 1X B-27 supplement (Thermo Fisher Scientific, cat. 17504044), 1X N-2 supplement (Thermo Fisher Scientific, cat. 17502048), and 10 microM Y-27632 dihydrochloride (Tocris Bioscience, Bristol, United Kingdom, cat. 1254). The 624824-186-R-J2-PDC line was cultured in 6C/Colon 1B media, which includes all 6A media components plus 50 ng/mL human EGF recombinant protein (Thermo Fisher Scientific, cat. PHG0311). […]

[1] = second compound 0.00316 µM, first compound 0.0316 µM
[2] = second compound 0.00316 µM, first compound 0.1 µM
[3] = second compound 0.01 µM, first compound 0.0316 µM
[4] = second compound 0.01 µM, first compound 0.1 µM
[5] = second compound 0.0316 µM, first compound 0.0316 µM
[6] = second compound 0.0316 µM, first compound 0.1 µM
[7] = second compound 0.1 µM, first compound 0.0316 µM
[8] = second compound 0.1 µM, first compound 0.1 µM
[9] = second compound 0.316 µM, first compound 0.0316 µM
[10] = second compound 0.316 µM, first compound 0.1 µM
[11] = second compound 1 µM, first compound 0.0316 µM
[12] = second compound 1 µM, first compound 0.1 µM
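Also: spheroids exposed to agents for seven days before readout.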

CC(C)n1nc(-c2ccc3oc(N)nc3c2)c2c(N)ncnc21 + CC(Nc1ccc2c(c1)OCCn1cc(N3C(=O)OCC3C(F)F)nc1-2)C(N)=O
> 0.1 µM: IC50 (second compound 0.00316 µM) | IC50 (second compound 0.01 µM) | IC50 (second compound 0.0316 µM) | IC50 (second compound 0.1 µM) | IC50 (second compound 0.316 µM) | IC50 (second compound 1 µM)
inactive: viability, T/C (second compound 0.00316 µM, first compound 0.000316 µM) 91% | viability, T/C (second compound 0.00316 µM, first compound 0.001 µM) 83.2% | viability, T/C (second compound 0.00316 µM, first compound 0.00316 µM) 89.2% | viability, T/C (second compound 0.00316 µM, first compound 0.01 µM) 73.2% | viability, T/C [1] 74.9% | viability, T/C [2] 58.7% | viability, T/C (second compound 0.01 µM, first compound 0.000316 µM) 97.3% | viability, T/C (second compound 0.01 µM, first compound 0.001 µM) 81.5% | viability, T/C (second compound 0.01 µM, first compound 0.00316 µM) 95.1% | viability, T/C (second compound 0.01 µM, first compound 0.01 µM) 85.7% | viability, T/C [3] 82.3% | viability, T/C [4] 61.4% | viability, T/C (second compound 0.0316 µM, first compound 0.000316 µM) 85.5% | viability, T/C (second compound 0.0316 µM, first compound 0.001 µM) 113% | viability, T/C (second compound 0.0316 µM, first compound 0.00316 µM) 94.8% | viability, T/C (second compound 0.0316 µM, first compound 0.01 µM) 89.8% | viability, T/C [5] 77.7% | viability, T/C [6] 58% | viability, T/C (second compound 0.1 µM, first compound 0.000316 µM) 83.5% | viability, T/C (second compound 0.1 µM, first compound 0.001 µM) 88% | viability, T/C (second compound 0.1 µM, first compound 0.00316 µM) 92% | viability, T/C (second compound 0.1 µM, first compound 0.01 µM) 88.6% | viability, T/C [7] 77% | viability, T/C [8] 59.6% | viability, T/C (second compound 0.316 µM, first compound 0.000316 µM) 83.8% | viability, T/C (second compound 0.316 µM, first compound 0.001 µM) 89% | viability, T/C (second compound 0.316 µM, first compound 0.00316 µM) 88.8% | viability, T/C (second compound 0.316 µM, first compound 0.01 µM) 82.7% | viability, T/C [9] 74% | viability, T/C [10] 58.7% | viability, T/C (second compound 1 µM, first compound 0.000316 µM) 87.4% | viability, T/C (second compound 1 µM, first compound 0.001 µM) 83.3% | viability, T/C (second compound 1 µM, first compound 0.00316 µM) 83% | viability, T/C (second compound 1 µM, first compound 0.01 µM) 85.8% | viability, T/C [11] 71.1% | viability, T/C [12] 55.2%

CCCS(=O)(=O)Nc1ccc(F)c(C(=O)c2c[nH]c3ncc(-c4ccc(Cl)cc4)cc23)c1F + CC(Nc1ccc2c(c1)OCCn1cc(N3C(=O)OCC3C(F)F)nc1-2)C(N)=O
inactive: viability, T/C [1] 84.5% | viability, T/C [2] 84.3% | viability, T/C (second compound 0.00316 µM, first compound 0.316 µM) 81.7% | viability, T/C (second compound 0.00316 µM, first compound 1 µM) 85.2% | viability, T/C (second compound 0.00316 µM, first compound 3.16 µM) 92.6% | viability, T/C (second compound 0.00316 µM, first compound 10 µM) 101% | viability, T/C [3] 102% | viability, T/C [4] 89% | viability, T/C (second compound 0.01 µM, first compound 0.316 µM) 90.4% | viability, T/C (second compound 0.01 µM, first compound 1 µM) 83.2% | viability, T/C (second compound 0.01 µM, first compound 3.16 µM) 82.6% | viability, T/C (second compound 0.01 µM, first compound 10 µM) 91.7% | viability, T/C [5] 97.5% | viability, T/C [6] 94.8% | viability, T/C (second compound 0.0316 µM, first compound 0.316 µM) 96.8% | viability, T/C (second compound 0.0316 µM, first compound 1 µM) 89.8% | viability, T/C (second compound 0.0316 µM, first compound 3.16 µM) 75.9% | viability, T/C (second compound 0.0316 µM, first compound 10 µM) 88.3% | viability, T/C [7] 83.8% | viability, T/C [8] 96.6% | viability, T/C (second compound 0.1 µM, first compound 0.316 µM) 89.6% | viability, T/C (second compound 0.1 µM, first compound 1 µM) 84.5% | viability, T/C (second compound 0.1 µM, first compound 3.16 µM) 81.4% | viability, T/C (second compound 0.1 µM, first compound 10 µM) 81.9% | viability, T/C [9] 77.4% | viability, T/C [10] 94.5% | viability, T/C (second compound 0.316 µM, first compound 0.316 µM) 89.5% | viability, T/C (second compound 0.316 µM, first compound 1 µM) 79.1% | viability, T/C (second compound 0.316 µM, first compound 3.16 µM) 81.4% | viability, T/C (second compound 0.316 µM, first compound 10 µM) 70.4% | viability, T/C [11] 90.7% | viability, T/C [12] 92.6% | viability, T/C (second compound 1 µM, first compound 0.316 µM) 80.4% | viability, T/C (second compound 1 µM, first compound 1 µM) 90.3% | viability, T/C (second compound 1 µM, first compound 3.16 µM) 83.1% | viability, T/C (second compound 1 µM, first compound 10 µM) 72.7%
> 10 µM: IC50 (second compound 0.00316 µM) | IC50 (second compound 0.01 µM) | IC50 (second compound 0.0316 µM) | IC50 (second compound 0.1 µM) | IC50 (second compound 0.316 µM) | IC50 (second compound 1 µM)

— PubChem BioAssay AID1963980 (Molecular Pharmacology Branch, DTP, NCI, 2024)
